Square brackets hold non-standard residues; d marks the D form. Peptide text beside a SMILES is read from it. * marks the point of attachment. Hyp = O=C(O)[C@@H]1C[C@@H](O)CN1; Cbz = O=C(OCc1ccccc1)*; Boc = CC(C)(C)OC(=O)*; OBn = c1ccc(CO*)cc1; Bn = c1ccc(C*)cc1; OtBu = CC(C)(C)O*
Key:
ABCB1 = ABCB1 (Homo sapiens, UniProt P08183); set-up: key: the inhibitor is active (+); it is inactive (−); the effect is unknown (?); settings: cited from earlier work
ABCC1 = ABCC1 (Homo sapiens, UniProt P33527); settings: cited from earlier work
ABCG2 = biological target: T1, ABCG2 (Homo sapiens, UniProt Q9UNQ0); set-up: key: the inhibitor is active (+); it is inactive (−); the effect is unknown (?); settings: cited from earlier work
T1 sequence (Q9UNQ0 1-655): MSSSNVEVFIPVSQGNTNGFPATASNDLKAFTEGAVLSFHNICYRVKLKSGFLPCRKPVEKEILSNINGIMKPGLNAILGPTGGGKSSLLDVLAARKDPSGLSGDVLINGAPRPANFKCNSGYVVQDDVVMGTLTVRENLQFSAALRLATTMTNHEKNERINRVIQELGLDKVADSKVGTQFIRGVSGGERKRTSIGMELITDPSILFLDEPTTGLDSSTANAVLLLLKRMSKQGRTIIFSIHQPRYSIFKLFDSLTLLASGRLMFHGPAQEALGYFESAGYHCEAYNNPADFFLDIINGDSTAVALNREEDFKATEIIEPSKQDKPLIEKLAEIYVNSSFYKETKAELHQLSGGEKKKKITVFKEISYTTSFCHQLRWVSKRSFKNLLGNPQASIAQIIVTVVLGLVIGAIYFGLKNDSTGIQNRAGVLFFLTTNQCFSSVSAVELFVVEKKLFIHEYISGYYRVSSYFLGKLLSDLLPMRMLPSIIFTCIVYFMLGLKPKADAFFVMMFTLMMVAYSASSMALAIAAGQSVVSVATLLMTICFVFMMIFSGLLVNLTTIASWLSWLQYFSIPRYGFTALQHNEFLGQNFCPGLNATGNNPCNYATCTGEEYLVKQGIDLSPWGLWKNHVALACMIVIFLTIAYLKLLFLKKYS

[1] = phase III; cited from earlier work
P-gp = biological target: T2, P-gp (Homo sapiens, UniProt P08183); assay: Flow cytometry, inhibition of mitoxantrone efflux in NIH3T3 cells expressing P-gp; type: cell-based; settings: for % pump inhibition at 10 μM of compound, P-gp / inhibition at 1 h, 10 µM: 10 μM compound; for % pump inhibition at 10 μM of compound, P-gp / IC50 / inhibition at 1 h, 10 µM: mitoxantrone efflux; for IC50: mathematical adjustment of experimental points; for inhibition at 1 h, 10 µM: human, probe mitoxantrone, read-out: % pump inhibition at 10 μM of compound, P-gp
T2 construct: expressed in transfected cells; host or cells: NIH3T3 (ATCC CRL-1658), stably transfected with retroviral vector pHaMDR1/A
Source text: (§1) The HEK-293 human fibroblast line (ATCC cell collection CRL-1573) is transfected with either BCRP (Robey R. W. et al. 2003, Br. J. Cancer 89(10) 1971-1978, [32]) or ABCC1, cloned into the pcDNA3.1 expression vector (Invitrogen), or with the empty pcDNA3.1 vector. The NIH3T3 cell line (ATCC CRL-1658) was stably transfected with pHaMDR1/A (Cardarelli et al. 1995 Cancer Res 55 1086-1091, [33]), which is a retroviral vector that expresses the wild-type MDR1 protein. The BHK-21 cell line (ATCC CCL-10) was transfected with MRP1 cloned into the pcDNA3.1 expression vector, or the empty pcDNA3.1 vector. The cells are maintained in culture in DMEM glutamax II (Invitrogen) supplemented with 10% of fetal bovine serum and 1% of penicillin/streptomycin. The data are processed with Sigmaplot V11 (http://www.systat.com/), and the equation for mathematical adjustment of the experimental data for calculating the IC50 values: f=a×(1−exp(−b×x)) (a=slope, b=intercept on the y-axis).
(§2) The cells expressing P-gp, BCRP and MRP, and their corresponding controls, are placed in the presence of 10 and 2 μM of mitoxantrone for the first two transporters and of 1 μM of daunorubicin for the 3rd. Substrate accumulation is carried out for 30 minutes at 37° C. in the presence or absence of varied concentrations of the molecules tested, at a final DMSO (dimethyl sulfoxide) concentration of 0.5%. After washing with PBS (phosphate buffered saline), the cells are incubated in medium containing the same concentrations of molecules tested as previously, for 1 h at 37° C. The intracellular fluorescence of mitoxantrone and daunorubicin anticancer agent is measured with the FACscan flow cytometer (Becton Dickinson, Mountain, View, Calif.). The drugs are excited at 488 nm. The emission of mitoxantrone is measured at 650 nm, whereas the emission of daunorubicin is measured at 530 nm. The effectiveness of the molecules tested is expressed by equation 1: % effectiveness=100×(FA−FBG)/(FC−FBG), where FA corresponds to the intracellular level of substrate measured in the cells overexpressing ABCG2 (corresponding to the lowest level of fluorescence in the absence of inhibitor), FC corresponds to the fluorescence in the control cells transfected with the empty vector (and therefore to the maximum accumulation of substrate in the cells) and FBG corresponds to the fluorescence measured in the absence of substrate and in the presence of inhibitor.
(§3) The inhibitory effect of the compounds is quantified by measuring, by flow cytometry, the efflux of an anticancer drug transported by the pump under consideration, i.e. mitoxantrone for P-gp and BCRP and daunorubicin for MRP1. It is compared with that of the reference product, reversin 121. The products are tested at 10 μM, then at 2 μM for those which block at least 80% of the efflux of mitoxantrone, and for some, a more complete concentration range is tested so as to establish the concentration value producing 50% inhibition, IC50, as indicated in FIG. 3.

BCRP = biological target: T3, BCRP (Homo sapiens, UniProt Q9UNQ0); assay: Flow cytometry, inhibition of mitoxantrone efflux in HEK-293 cells transfected with BCRP; type: cell-based; settings: 10 μM compound
T3 construct: expressed in transfected cells; host or cells: HEK-293 (ATCC CRL-1573), pcDNA3.1 expression vector (Invitrogen)
T3 sequence (Q9UNQ0 1-655): T1 sequence (Q9UNQ0 1-655)
Source text: as §1, §2, §3

MRP1 = biological target: T4, MRP1 (Homo sapiens, UniProt P33527); assay: Flow cytometry, inhibition of daunorubicin efflux in cells transfected with MRP1; type: cell-based; settings: 10 μM compound
T4 construct: expressed in transfected cells; host or cells: BHK-21 (ATCC CCL-10) with MRP1 in pcDNA3.1; HEK-293 transfected with ABCC1 in pcDNA3.1 is also described
Source text: as §1, §2
The inhibitory effect of the compounds is quantified by measuring, by flow cytometry, the efflux of an anticancer drug transported by the pump under consideration, i.e. mitoxantrone for P-gp and BCRP and daunorubicin for MRP1. It is compared with that of the reference product, reversin 121. […]

[2] = tested on: NIH3T3 cells expressing or not expressing P-gp; assay: Cytotoxicity test (MTT), cell survival after 72 h; type: cell-based
Protocol: The cells are seeded in a proportion of 10 000 per well in 96-well plates and incubated for 24 hours at 37° C. under 5% CO2. Varied concentrations of compounds Nos 2, 3, 4, 5 and 6, up to 20 times the IC50, are then added. The cytotoxicity is evaluated colorinnetrically with 3-(4,5-dimethylthiazol-2-yl)-2,5-diphenyltetrazolium bromide (MTT).
Increasing concentrations of compound No. 4 or No. 6 are applied to NIH3T3 cells expressing or not expressing P-gp. The cell survival is measured after 72 h and is expressed as a percentage. At 10 times the half-maximum-effect concentration, these two compounds are not toxic. Above this, the toxicity of compound No. 4 remains negligible, while that of compound No. 6 remains limited.

ABCB1, sequence (P08183 whole entry): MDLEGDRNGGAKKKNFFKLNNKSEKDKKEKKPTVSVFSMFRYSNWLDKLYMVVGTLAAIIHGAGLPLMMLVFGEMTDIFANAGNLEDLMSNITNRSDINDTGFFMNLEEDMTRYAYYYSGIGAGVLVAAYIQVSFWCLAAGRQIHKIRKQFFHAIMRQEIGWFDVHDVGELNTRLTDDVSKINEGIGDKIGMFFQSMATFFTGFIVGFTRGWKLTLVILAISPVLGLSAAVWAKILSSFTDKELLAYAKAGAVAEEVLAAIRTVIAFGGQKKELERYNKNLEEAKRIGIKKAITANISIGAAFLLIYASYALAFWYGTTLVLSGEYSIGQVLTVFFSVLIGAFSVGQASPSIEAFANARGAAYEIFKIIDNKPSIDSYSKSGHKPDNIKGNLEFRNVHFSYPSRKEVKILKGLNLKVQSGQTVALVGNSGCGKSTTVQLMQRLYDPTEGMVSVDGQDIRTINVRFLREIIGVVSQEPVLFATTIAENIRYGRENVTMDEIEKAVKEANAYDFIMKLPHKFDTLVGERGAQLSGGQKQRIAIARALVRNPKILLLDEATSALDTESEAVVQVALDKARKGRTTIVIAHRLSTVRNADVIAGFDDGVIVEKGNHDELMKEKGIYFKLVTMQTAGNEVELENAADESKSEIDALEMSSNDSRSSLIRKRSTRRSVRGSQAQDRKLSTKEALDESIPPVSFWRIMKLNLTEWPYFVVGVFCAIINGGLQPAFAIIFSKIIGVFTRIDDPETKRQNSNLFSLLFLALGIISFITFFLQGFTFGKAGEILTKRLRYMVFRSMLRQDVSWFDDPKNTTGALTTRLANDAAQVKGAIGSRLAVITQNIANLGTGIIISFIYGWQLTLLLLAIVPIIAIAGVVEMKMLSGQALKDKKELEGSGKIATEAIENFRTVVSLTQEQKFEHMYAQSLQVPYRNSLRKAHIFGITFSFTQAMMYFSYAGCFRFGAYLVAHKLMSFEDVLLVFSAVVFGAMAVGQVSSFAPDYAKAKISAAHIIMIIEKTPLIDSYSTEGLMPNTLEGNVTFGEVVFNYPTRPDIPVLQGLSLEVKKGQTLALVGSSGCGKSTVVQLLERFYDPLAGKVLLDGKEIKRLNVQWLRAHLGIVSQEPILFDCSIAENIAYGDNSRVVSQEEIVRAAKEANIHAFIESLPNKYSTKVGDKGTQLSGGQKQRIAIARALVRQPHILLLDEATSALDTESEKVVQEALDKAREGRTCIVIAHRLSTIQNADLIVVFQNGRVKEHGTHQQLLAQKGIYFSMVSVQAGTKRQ
T2 sequence (P08183 whole entry): as above
T4 sequence (P33527 whole entry): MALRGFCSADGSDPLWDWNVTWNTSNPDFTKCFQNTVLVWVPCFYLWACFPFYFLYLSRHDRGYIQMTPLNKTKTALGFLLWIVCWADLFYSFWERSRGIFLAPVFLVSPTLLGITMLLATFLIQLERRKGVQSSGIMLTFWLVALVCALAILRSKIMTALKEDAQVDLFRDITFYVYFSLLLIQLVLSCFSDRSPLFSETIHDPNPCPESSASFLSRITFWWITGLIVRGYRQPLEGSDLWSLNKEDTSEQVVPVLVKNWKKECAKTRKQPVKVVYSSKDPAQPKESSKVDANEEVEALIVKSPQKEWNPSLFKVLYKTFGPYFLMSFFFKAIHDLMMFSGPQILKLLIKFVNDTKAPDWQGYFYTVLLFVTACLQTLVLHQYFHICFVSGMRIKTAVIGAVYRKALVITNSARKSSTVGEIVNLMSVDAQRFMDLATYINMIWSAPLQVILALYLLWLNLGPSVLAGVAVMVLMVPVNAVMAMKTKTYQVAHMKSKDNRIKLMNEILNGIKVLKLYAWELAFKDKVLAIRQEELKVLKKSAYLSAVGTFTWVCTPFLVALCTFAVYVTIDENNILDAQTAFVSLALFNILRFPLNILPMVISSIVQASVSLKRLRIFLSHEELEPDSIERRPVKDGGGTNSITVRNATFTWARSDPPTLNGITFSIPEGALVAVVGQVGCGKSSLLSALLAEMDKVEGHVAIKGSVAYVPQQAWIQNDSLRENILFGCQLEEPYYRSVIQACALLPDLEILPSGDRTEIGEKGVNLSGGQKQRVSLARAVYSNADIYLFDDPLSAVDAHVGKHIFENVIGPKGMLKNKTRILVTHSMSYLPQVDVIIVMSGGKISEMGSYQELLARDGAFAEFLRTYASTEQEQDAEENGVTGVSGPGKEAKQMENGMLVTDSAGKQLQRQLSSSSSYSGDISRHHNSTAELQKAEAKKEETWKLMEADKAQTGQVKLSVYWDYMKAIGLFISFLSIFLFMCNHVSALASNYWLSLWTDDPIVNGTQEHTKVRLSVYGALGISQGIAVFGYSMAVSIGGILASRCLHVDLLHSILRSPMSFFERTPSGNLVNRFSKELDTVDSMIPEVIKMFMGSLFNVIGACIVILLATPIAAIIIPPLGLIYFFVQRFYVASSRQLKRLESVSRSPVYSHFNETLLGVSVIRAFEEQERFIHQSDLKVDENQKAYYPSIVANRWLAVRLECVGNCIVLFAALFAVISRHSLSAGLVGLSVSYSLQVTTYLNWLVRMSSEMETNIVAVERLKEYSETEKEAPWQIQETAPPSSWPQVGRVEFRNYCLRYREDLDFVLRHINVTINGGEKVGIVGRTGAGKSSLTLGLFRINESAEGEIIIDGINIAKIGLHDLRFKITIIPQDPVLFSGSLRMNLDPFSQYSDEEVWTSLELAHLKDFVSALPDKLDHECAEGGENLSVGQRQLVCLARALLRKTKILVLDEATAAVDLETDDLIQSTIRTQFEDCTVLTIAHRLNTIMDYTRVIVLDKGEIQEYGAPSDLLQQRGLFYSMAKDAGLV
ABCC1, sequence (P33527 whole entry): as above

Compound | activity of MDR inhibitor on ABCB1 (ABCB1) | activity of MDR inhibitor on ABCC1 (ABCC1) | activity of MDR inhibitor on ABCG2 (ABCG2) | IC50 (P-gp) [nM] | other results
COC(=O)c1cnc2n1CCc1ccccc1C2=C1CCN(CCc2ccc(OCc3ccc4ccccc4n3)cc2)CC1 [R101933 (laniquidar)] | + |  |  |  | 
COc1cc2c(cc1OC)CN(CCc1ccc(NC(=O)c3cccc4c(=O)c5cccc(OC)c5[nH]c34)cc1)CC2 [GF120918 (elacridar)] | + | − | + |  | 
O[C@@H](COc1cccc2ncccc12)CN1CCN([C@@H]2c3ccccc3[C@@H]3[C@H](c4ccccc42)C3(F)F)CC1 [Ly335979 (zosuquidar)] |  | − | − |  | clinical outcome [1]: stopped in phase III because of their adverse effects
COc1cc(C(=O)C(=O)N2CCCC[C@H]2C(=O)OC(CCCc2cccnc2)CCCc2cccnc2)cc(OC)c1OC [VX-710 (biricodar)] | + | + | + |  | 
COc1cc2c(cc1OC)CN(CCc1ccc(NC(=O)c3cc(OC)c(OC)cc3NC(=O)c3cnc4ccccc4c3)cc1)CC2 [XR9576 (tariquidar)] | + |  | + |  | 
CC(C)(C)OC(=O)[C@H](CCCCNC(=O)OCc1ccccc1)NC(=O)[C@@H]1C[C@@H](OC(=O)Cc2ccccc2)CN1C(=O)OC(C)(C)C (relative stereo) [No. 2, N^α-Boc-trans-L-4-Hyp(COBn)-L-Lys(Z)-OtBu] |  |  |  |  | % pump inhibition at 10 μM of compound, P-gp (P-gp): 68.0 ± 10.0%; % pump inhibition at 10 μM of compound, BCRP (BCRP): 10.0 ± 7.5%
CC(C)(C)OC(=O)[C@H](CCCCNC(=O)OCc1ccccc1)NC(=O)[C@@H]1C[C@@H](OCc2ccccc2)CN1C(=O)OC(C)(C)C [No. 4, N^α-Boc-trans-L-4-Hyp(Bn)-L-Lys(Z)-OtBu] (Boc-[Hyp](Bn)-Lys(Cbz)-OtBu) |  |  |  | 730 ± 200 | IC50 for P-gp compared with that of reversin 121 (P-gp): twice as good; % pump inhibition at 10 μM of compound, P-gp (P-gp): 99.7 ± 11.0%; % pump inhibition at 10 μM of compound, BCRP (BCRP; 10 µM): 16.6 ± 3.4%; % pump inhibition at 10 μM of compound, MRP1 (MRP1): low or zero; inhibition at 1 h, 10 µM (MRP1; human, probe daunorubicin, read-out: % pump inhibition at 10 μM of compound, MRP1): < 10%; cytotoxicity ([2]; above 10 times the half-maximum-effect concentration): negligible; cytotoxicity ([2]; at 10 times the half-maximum-effect concentration): not toxic
CC(C)(C)OC(=O)N[C@@H](CC(=O)OCc1ccccc1)C(=O)N[C@@H](CCCCNC(=O)OCc1ccccc1)C(=O)OC(C)(C)C [Reversin 121, reference compound] (Boc-Asp(OBn)-Lys(Cbz)-OtBu) |  |  |  | 1410 ± 340 | % pump inhibition at 10 μM of compound, P-gp (P-gp): 75.8 ± 1.6%; % pump inhibition at 10 μM of compound, BCRP (BCRP): 37.2 ± 3.7%
CCOC/C=C/c1ccc(-c2nc(-c3ccc(NC(C)C)cc3)c(-c3ccc(NC(C)C)cc3)[nH]2)cc1 [ONT-093 (ontogeny)] | + | − |  |  | 
CC(C)(C)OC(=O)[C@H](CCCCNC(=O)OCc1ccccc1)NC(=O)[C@@H]1C[C@@H](OCC2CCCCC2)CN1C(=O)OC(C)(C)C [No. 5, N^α-Boc-trans-L-4-Hyp(CH2cHex)-L-Lys(Z)-OtBu] |  |  |  | 1130 ± 340 | inhibition at 1 h, 10 µM (P-gp): 82.2 ± 10.8%; % pump inhibition at 10 μM of compound, BCRP (BCRP): 18.8 ± 10.0%
CC(C)(C)OC(=O)C(CCCCNC(=O)OCc1ccccc1)NC(=O)C1CC(OC(=O)C2CCCCC2)CN1C(=O)OC(C)(C)C [No. 3, N^α-Boc-trans-L-4-Hyp(COcHex)-L-Lys(Z)-OtBu] |  |  |  | 1680 ± 280 | IC50 for P-gp compared with that of reversin 121 (P-gp): better than that of reversin; inhibition at 1 h, 10 µM (P-gp): 106 ± 13.4%; inhibition at 1 h, 10 µM (BCRP; human, HEK-293 cells transfected with BCRP, probe mitoxantrone, read-out: % pump inhibition at 10 μM of compound, BCRP): 11.2%; % pump inhibition at 10 μM of compound, MRP1 (MRP1; 10 µM): non measurable
C/C=C/C[C@@H](C)C(=O)[C@H]1C(=O)N[C@@H](C(C)C)C(=O)N(C)CC(=O)N(C)[C@@H](CC(C)C)C(=O)N[C@@H](C(C)C)C(=O)N(C)[C@@H](CC(C)C)C(=O)N[C@@H](C)C(=O)N[C@H](C)C(=O)N(C)[C@@H](CC(C)C)C(=O)N(C)[C@@H](CC(C)C)C(=O)N(C)[C@@H](C(C)C)C(=O)N1C [PSC833 (valspodar)] | + |  | − |  | 
